Tests used:
[1] = system: H1N1pdm influenza virus strain (A/Shizuoka/830/2009); format: cell-based
[2] = system: influenza B virus strain (B/Lee/1940); format: cell-based
[3] = system: H1N1 (laboratory strain) influenza virus strain; format: cell-based, influenza A virus
[4] = system: H3N2 influenza virus strain (A/Memphis/l/1971); format: cell-based
[5] = system: influenza B virus strain (B/Lee/1940); format: cell-based; remark: listed apart in the source
[6] = system: H1N1pdm influenza virus strain (A/Shizuoka/830/2009); format: cell-based; remark: listed apart in the source
[7] = system: H3N2 influenza virus strain (A/Memphis/l/1971); format: cell-based; remark: listed apart in the source
[8] = system: H1N1 (laboratory strain) influenza virus strain; format: cell-based, influenza A virus; remark: listed apart in the source
[9] = system: H1N1 influenza virus strain (A/Puerto Rico/8/1934); conditions: in vivo

## Pro-Met-Leu-Lys-Glu (PMLKE) [SEQ ID NO: 2]
[1]
  HA titer of influenza virus, low Bax inhibitor concentration: increase in the HA titer of the influenza virus was also observed
[2]
  HA titer of influenza B virus: increases
[3]
  amount of influenza virus (virus proliferation capacity) by focus assay, low concentration: enhances the virus proliferation capacity
[4]
  amount of influenza virus (virus proliferation capacity) by focus assay, low concentration: enhances the virus proliferation capacity
[5]
  amount of influenza B virus (virus proliferation capacity) by plaque assay: exhibit the effect of enhancing the virus proliferation capacity
[6]
  amount of influenza virus (virus proliferation capacity) by focus assay, low concentration: enhances the virus proliferation capacity
[7]
  HA titer of influenza virus, low Bax inhibitor concentration: increase in the HA titer of the influenza virus was also observed
[8]
  HA titer of influenza virus, low Bax inhibitor concentration: increase in the HA titer of the influenza virus was also observed

## Val-Pro-Met-Leu-Lys (VPMLK) [SEQ ID NO: 1]
[1]
  HA titer of influenza virus: increases
  HA titer of influenza virus, low Bax inhibitor concentration: increases
  HA titer of influenza virus, time-dependent: increases the HA titer of the influenza virus strains in the early stages of the culture
[2]
  HA titer of influenza B virus: increases
[4]
  amount of influenza virus (virus proliferation capacity) by focus assay: exhibits the effect of enhancing the virus proliferation capacity
[5]
  amount of influenza B virus (virus proliferation capacity) by plaque assay: exhibit the effect of enhancing the virus proliferation capacity
[6]
  amount of influenza virus (virus proliferation capacity) by focus assay: exhibits the effect of enhancing the virus proliferation capacity
[7]
  HA titer of influenza virus: increases
  HA titer of influenza virus, low Bax inhibitor concentration: increases
  HA titer of influenza virus, time-dependent: increases the HA titer of the influenza virus strains in the early stages of the culture
[8]
  HA titer of influenza virus, low Bax inhibitor concentration: increases

## Val-Ser-Ala-Leu-Lys (VSALK) [SEQ ID NO: 7]
[9]
  increase of viral titer versus control group: 1.27 times
  viral titer compared with 10-fold control group (5×10^3 EID50/chicken egg): higher

Source: US12305197B2, “Proliferation method” (Kao Corporation, priority 2019, dated 2025)
